{
  "source": "patent US20250019388A1",
  "about": "“STAT3 DEGRADERS AND USES THEREOF” (priority 2021, published 2025)",
  "key": {"[1]": {"system": "SUP-M2 xenografts", "test": "Antitumor activity in SUP-M2 cell-line xenograft model", "type": "in vivo, NOD SCID mice", "details": "for tumor regression: 2 day on/5 days off", "description": "(§1) The antitumor efficacy of Compound A ammonium hydrogen salt was evaluated in immunocompromised mice implanted with human ALCL cell lines SU-DHL-1 and SUP-M2. Protocols for testing STAT3 degraders in human cell line xenograft models can be found, for example, in WO 2020/206424, incorporated herein by reference.\n(§2) The antitumor activity of Compound A ammonium hydrogen salt was evaluated in a human SUP-M2 cell-line xenograft model established in NOD SCID female mice. Tumor bearing mice (n=5/group) were administered either 0 (vehicle; PBS), 10, 20, or 30 mg/kg Compound A QW (Days 0, 7, and 14), 10 or 20 mg/kg Compound A on a 2 days on/5 days off schedule (Days 0, 1, 7, 8, 14, and 15), or 0 (vehicle; PBS), 20, or 40 mg/kg Compound A Q2W (Days 0 and 14). Animals administered Compound A QW or 2 on/5 off were monitored until Day 25 post first dose, and those administered Compound A Q2W were monitored until Day 52 post first dose."}, "[2]": {"system": "SU-DHL-1 cell line", "test": "Washout experiments in the SU-DHL-1 cell line", "type": "cell-based, human"}, "[3]": {"system": "other STAT family members or other cellular proteins", "test": "Proteome wide assessment in PBMC", "type": "cell-based"}, "[4]": {"test": "Aqueous solubility", "type": "physicochemical", "description": "Compound A injection was manufactured as a frozen concentrated solution containing 10 mg/mL of free acid intended to be diluted with IV infusion vehicle. It has aqueous solubility greater than 10 mg/mL at pH 4.5 to 9.0 but less than 10 mg/mL at pH less than or equal to 3."}, "[5]": {"system": "caspase 3/7", "test": "Caspase 3/7 activity in ALCL lines", "type": "cell-based, human", "details": "at similar concentrations"}, "[6]": {"system": "ALCL cell lines", "test": "Cellular phenotypic assays (GI50) in ALCL cell lines", "type": "cell-based", "details": "Homo sapiens; several ALCL cell lines"}, "[7]": {"target": "T1, STAT3 (Rattus norvegicus, UniProt P52631)", "T1 construct": "from tissue", "T1 sequence (P52631 whole entry)": "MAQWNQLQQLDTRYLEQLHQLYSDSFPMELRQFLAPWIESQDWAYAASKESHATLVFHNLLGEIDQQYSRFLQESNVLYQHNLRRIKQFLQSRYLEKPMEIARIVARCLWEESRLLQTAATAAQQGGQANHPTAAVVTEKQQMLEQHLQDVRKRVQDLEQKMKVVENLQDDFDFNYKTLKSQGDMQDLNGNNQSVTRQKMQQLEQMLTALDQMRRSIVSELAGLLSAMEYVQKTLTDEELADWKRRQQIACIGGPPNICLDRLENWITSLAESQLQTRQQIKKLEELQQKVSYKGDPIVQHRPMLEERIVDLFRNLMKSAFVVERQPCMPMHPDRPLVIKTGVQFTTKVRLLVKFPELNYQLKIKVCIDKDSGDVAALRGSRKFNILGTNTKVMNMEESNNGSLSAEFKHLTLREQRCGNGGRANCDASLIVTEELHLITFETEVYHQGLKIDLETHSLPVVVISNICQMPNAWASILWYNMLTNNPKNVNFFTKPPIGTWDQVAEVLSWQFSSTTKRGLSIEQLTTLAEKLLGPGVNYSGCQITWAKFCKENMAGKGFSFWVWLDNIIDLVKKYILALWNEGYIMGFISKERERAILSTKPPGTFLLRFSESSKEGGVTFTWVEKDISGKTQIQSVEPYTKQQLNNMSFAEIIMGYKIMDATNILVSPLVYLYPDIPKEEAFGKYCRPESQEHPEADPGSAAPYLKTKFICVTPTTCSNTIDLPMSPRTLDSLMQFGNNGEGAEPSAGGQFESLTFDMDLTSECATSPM", "test": "PK/PD study in rats, STAT3 degradation in tissues", "type": "in vivo", "details": "IV administration"}, "[8]": {"system": "SU-DHL-1 xenografts", "test": "Antitumor activity in SU-DHL-1 cell-line xenograft model", "type": "in vivo, NOD SCID mice", "description": "as §1\n(§3) The antitumor activity of Compound A ammonium hydrogen salt was evaluated in a human SU-DHL-1 cell-line xenograft model established in NOD SCID female mice. Tumor bearing mice (n=5/group) were administered either 0 (vehicle; PBS), 5, 10, 15, or 45 mg/kg Compound A once weekly (QW; Days 0, 7, and 14) or 0 (vehicle; PBS), 10, or 30 mg/kg Compound A once every two weeks (Q2W; Days 0 and 14). Animals administered Compound A QW were monitored until Day 25 post first dose and those administered Compound A Q2W were monitored until Day 71 post first dose."}, "[9]": {"test": "Body weight in SUP-M2 xenograft study", "type": "in vivo, NOD SCID mice", "details": "IV route", "description": "as §2"}, "[10]": {"system": "STAT3", "test": "STAT3 degradation potency in hepatocytes", "type": "cell-based", "details": "across human, rat, and dog"}, "[11]": {"target": "T2, STAT3 (Homo sapiens, UniProt P40763)", "T2 sequence (P40763 whole entry)": "as the sequence (P52631 whole entry) above, with D311E, D760E counted along it", "test": "Phase 1 study, STAT3 degradation in blood (PBMCs)", "type": "in vivo", "parameters": "Observed STAT3 degradation of 50-80% in PBMCs at Dose Level 1; from tissue; host or cells: blood / PBMCs of patients dosed IV with Compound A", "details": "patients", "text": "Rationale: Targeted protein degraders represent a new therapeutic class of compounds that utilize the ubiquitin proteasome system to target the specific degradation of proteins."}, "[12]": {"test": "Body weight in SU-DHL-1 xenograft study", "type": "in vivo, NOD SCID mice", "details": "IV route, SU-DHL-1 study", "description": "as §3"}, "[13]": {"target": "T2, STAT3", "test": "STAT3 degradation in human ALCL cell lines SU-DHL-1 and SUP-M2", "type": "cell-based", "details": "SU-DHL-1 and SUP-M2 cell lines"}, "[14]": {"test": "Phase 1 study, safety and tolerability", "type": "in vivo, human", "details": "patients, DL1", "description": "Rationale: Targeted protein degraders represent a new therapeutic class of compounds that utilize the ubiquitin proteasome system to target the specific degradation of proteins. Compound A is a protein degrader that targets signal transducers and activators of transcription (STAT)3, a transcription factor that plays an important role in hematological malignancies such as lymphomas and in solid tumors. Compound A is administered via intravenous infusion (IV) at the dose levels defined in the protocol on Days 1, 8, 15, and 22 of each 28-day cycle.\nPatients who provide informed consent and meet the eligibility criteria for the study will be enrolled and treated with Compound A IV on Days 1, 8, 15, and 22 of a 28-day cycle. Patients will remain on study treatment until disease progression, unacceptable toxicity, withdrawal of consent, any study-specific discontinuation criteria are met, or the Investigator determines that it is in the best interest of the patient to discontinue study treatment.\nPhase 1a: This part aims to characterize the safety and tolerability of IV weekly doses of Compound A in sequential cohorts. […]"}, "[15]": {"target": "T2, STAT3", "test": "STAT3 degradation in tumor, SU-DHL-1 tumor xenograft murine model", "type": "in vivo, mice", "parameters": "from tissue; host or cells: SU-DHL-1 xenograft tumour in immunocompromised mice", "details": "10 mg/kg QW; observed for 48 hrs"}},
  "data": [
    {"compound": "CC(=O)N1CC[C@H]2CC[C@@H](C(=O)N[C@@H](CCC(N)=O)COc3cccc(CCCC(=O)N[C@H](C(=O)N4C[C@H](O)C[C@H]4C(=O)N[C@@H](C)c4ccc(-c5scnc5C)cc4)C(C)(C)C)c3Cl)N2C(=O)[C@@H](NC(=O)c2cc3cc(C(=O)P(=O)(O)O)ccc3[nH]2)C1", "note": "[Compound A, (2-(((5S,8S,10aR)-3-acetyl-8-(((S)-5-amino-1-(2-chloro-3-(4-(((S)-1-((2S,4R)-4-hydroxy-2-(((S)-1-(4-(4-methylthiazol-5-yl)phenyl)ethyl)carbamoyl)pyrrolidin-1-yl)-3,3-dimethyl-1-oxobutan-2-yl)amino)-4-oxobutyl)phenoxy)-5-oxopentan-2-yl)carbamoyl)-6-oxodecahydropyrrolo[1,2-a][1,5]diazocin-5-yl)carbamoyl)-1H-indole-5-carbonyl)phosphonic acid]", "values": [
      {"measurement": "TGI", "setting": "[1]; 10 mg/kg QW IV", "value": 83.8, "unit": "%"},
      {"measurement": "tumor regression", "setting": "[1]; 10 mg/kg", "value": "complete tumor regression in all animals"},
      {"measurement": "animals with complete tumor regression", "setting": "[1]; 20 mg/kg Q2W", "value": "4 of 5"},
      {"measurement": "animals with complete tumor regression", "setting": "[1]; 20 mg/kg QW IV", "value": "4 of 5"},
      {"measurement": "tumor regression", "setting": "[1]; 20 mg/kg", "value": "complete tumor regression in all animals"},
      {"measurement": "animals with complete tumor regression", "setting": "[1]; 30 mg/kg QW IV", "value": "5 of 5"},
      {"measurement": "animals with complete tumor regression", "setting": "[1]; 40 mg/kg Q2W", "value": "5 of 5"},
      {"measurement": "duration of sustained STAT3 degradation after which irreversible growth inhibition occurred", "setting": "[2]", "value": "approximately 48 hr"},
      {"measurement": "selectivity of degradation", "setting": "[3]", "value": "does not degrade other STAT family members or other cellular proteins"},
      {"measurement": "solubility", "setting": "[4]; aqueous buffer, pH 4.5 to 9.0", "value": "> 10000", "unit": "µg/mL"},
      {"measurement": "solubility", "setting": "[4]; pH 3, aqueous buffer, pH less than or equal to 3", "value": "< 10000", "unit": "µg/mL"},
      {"measurement": "caspase 3/7 activity, a marker of apoptosis", "setting": "[5]", "value": "induced caspase 3/7 activity"},
      {"measurement": "GI50", "setting": "[6]", "value": "8.1 to 57.4", "unit": "nM"},
      {"measurement": "degradation of STAT3 protein in tissues", "setting": "[7]", "value": "significant degradation of STAT3 protein in multiple tissues"},
      {"measurement": "tumor growth inhibition (TGI)", "setting": "[8]; 5 mg/kg QW IV", "value": 79.9, "unit": "%"},
      {"measurement": "TGI", "setting": "[8]; 10 mg/kg Q2W IV", "value": 89.8, "unit": "%"},
      {"measurement": "tumor regression", "setting": "[8]; 10 mg/kg QW IV", "value": "complete regression"},
      {"measurement": "tumor regression", "setting": "[8]; 15 mg/kg QW IV", "value": "complete regressions"},
      {"measurement": "TGI", "setting": "[8]; 30 mg/kg Q2W IV", "value": 99.8, "unit": "%"},
      {"measurement": "tumor regression", "setting": "[8]; 30 mg/kg Q2W IV, all animals", "value": "complete tumor regressions"},
      {"measurement": "tumor regression", "setting": "[8]; 45 mg/kg QW IV", "value": "complete regressions"},
      {"measurement": "body weight change", "setting": "[9]", "value": "little to slight body weight increases"},
      {"measurement": "degradation potency of STAT3 in hepatocytes", "setting": "[10]", "value": "comparable degradation potency"},
      {"measurement": "time of maximal STAT3 degradation post infusion", "setting": "[11]; DL1, Cycle 1 weeks 1 & 2", "value": "24 to 96", "unit": "h"},
      {"measurement": "STAT3 degradation in PBMCs", "setting": "[11]; Dose Level 1", "value": "50-80%"},
      {"measurement": "duration of target degradation", "setting": "[11]; first dose level", "value": "At least 72 h"},
      {"measurement": "maximum STAT3 knockdown in blood", "setting": "[11]; first dose level", "value": "up to 86%"},
      {"measurement": "mean maximum STAT3 degradation in blood", "setting": "[11]; first dose level (DL1, 0.05 mg/kg IV), following first 2 doses of Cycle 1", "value": 66, "unit": "%"},
      {"measurement": "body weight change", "setting": "[12]", "value": "slight to moderate body weight increases"},
      {"measurement": "STAT3 degradation (concentration)", "setting": "[13]", "value": "≤ 11.8 ± 2.3", "unit": "nM"},
      {"measurement": "safety and tolerability (DLTs, SAEs)", "setting": "[14]", "value": "safe and well-tolerated with no DLTs or SAEs"},
      {"measurement": "STAT3 degradation in tumor", "setting": "[15]", "value": "greater than 90%"}
    ]}
  ]
}
